Experimental data: paper PMC9804387, “Substrate Peptidomimetic Inhibitors of P. falciparum Plasmepsin X with Potent Antimalarial Activity” (Chemmedchem, 2022)
Where a name gives a salt, the structure may show the parent alone.

What was measured:
[1] = tested on: P. falciparum (Pf) 3D7 parasites; assay: P. falciparum LDH viability assay; assay type: cell-based; conditions: for EC50: Plasmodium falciparum, 3D7, 72 h, LDH activity, 72 h at 37 °C, mean and SD of 3 independent experiments
Description: P. falciparum LDH Viability Assay. P. falciparum LDH viability assays were performed as previously described.[40] Briefly, a ten‐point 1 : 3‐fold dilution series of the compounds were pre‐dispensed in 384‐well assay plates (Grenier), and RPMI/AlbuMAX growth media inoculated with synchronized ring stage P. falciparum parasites. 10 mM compound stocks were transferred into the assay plates such that the starting concentration was 10 μM. Plates were incubated for 72 h and then frozen at −80 °C overnight. Lactate dehydrogenase (LDH) activity was quantified with APAD by measuring absorbance of NBT at 650 nm. Data were normalized to percent growth inhibition using the positive control of 0.1 % DMSO alone and the negative control of 100 nM chloroquine. Half‐maximal effective concentration (EC50) values were calculated by GraphPad Prism (8.0.2) software using a nonlinear regression four‐parameter fit analysis using a sigmoidal dose response (variable slope).

recombinant Pf PMIX = target: T1, recombinant Pf PMIX (Plasmodium falciparum, UniProt Q8ILG2); assay: PMIX FRET protease assay; assay type: biochemical, P. falciparum; conditions: mean and SD of 4 replicate FRET experiments, 37 °C
T1 construct: made in house
Description: (§1) FRET Protease Assays. FRET protease assays were performed as previously described.[19, 20, 27, 28] Briefly, ten‐point 1 : 3‐fold dilution series of the compounds were prepared in 384‐well black low volume assay plates (Greiner) using an Echo555 (Labcyte). 10 mM compound stocks were transferred into assay plates such that the starting concentration was 90 μM (Pv PMV assays), 11.25 μM (renin, cathepsin D and BACE‐1 assays) or 100 nM and 10 μM (Pf PMX and Pf PMIX assays). All wells were backfilled to 200 nL DMSO such that the DMSO concentration remained constant across the assay plates (1 % final). All compound potency assays were conducted in 20 μL total volume. For each assay, 10 μL of recombinant enzymes in respective assay buffers (Table S2) were dispensed into compound containing assay plates using a Multidrop‐Combi dispenser and allowed to incubate for 15 min. Recombinant Pf PMX, Pf PMIX and Pv PMV were expressed as previously described,[23, 27, 28] and recombinant human aspartyl proteases were purchased commercially. 10 μL of the fluorogenic peptide substrates incubated at 37 °C for the duration and conditions noted in Table S2. Samples were excited at 340 nm and fluorescence emission measured at 492 nm using an Envision fluorescence plate reader (Perkin‐Elmer). The 0 % inhibition control contained DMSO alone (1 % final) and the 100 % inhibition control was in the absence of enzyme. Half‐maximal inhibitory concentration (IC50) values were calculated by GraphPad Prism (8.0.2) software using a nonlinear regression four‐parameter fit analysis using a sigmoidal dose response (variable slope).
(§2) Table S2 . P rotease FRET assay conditions.
(§3) PMX as sa y PMIX PM V assay Renin assay Cathepsin D assay BA CE-1 assay E nzy me prot e as e 0.25 nM pro te a se 6 nM prot e as e q ua nti ty 0.1 nM pro t ea se 1.5 nM pro t ea se 2.5 nM pro t ea se 3 nM (Pro te os #R-001) ( Athe ns Re sea rc h (Sigma #S4195) […]
(§4) 25mM so di um acetate, 100 mM 25 mM M E S, 25 m M 50 mM Tr is, 100 mM 100 mM so di u m 20 mM so dium Buffer acetate, 0.005% sodium chloride and Tris-HCl, 0.01% N aC l, 0. 1% Bri j-35, acetate 0.02% scetate, 0.05% […]
(§5) Sub str at e DABCYL- ( DA BC YL ) - DABCYL- DABCYL-(γ- Ab u) - E[E(EDANS)]KPIL […]

recombinant Pf PMX = target: T2, recombinant Pf PMX (Plasmodium falciparum, UniProt Q8IAS0); assay: PMX biochemical FRET assay (Rh2N fluorogenic substrate cleavage); conditions: 37 °C
T2 construct: made in house
Description: as §1, with “Half‐maximal inhibitory concentration (IC50) values were calculated by GraphPad Prism (8.0.2) software using a nonlinear regression four‐parameter fit analysis using a sigmoidal dose response (variable slope).” left out
as §2, §3, §4, §5

BACE‐1 = target: T3, BACE‐1 (Homo sapiens, UniProt P56817); assay: BACE-1 FRET protease assay; assay type: biochemical; conditions: mean and SD of 4 replicate FRET experiments, 37 °C; highest concentration tested 11 μM
T3 construct: purchased Sigma S4195

recombinant Pv PMV = target: T4, recombinant Pv PMV (Plasmodium vivax, UniProt A5K302); assay: PMV FRET protease assay; assay type: biochemical
T4 construct: made in house
Description: as §1, §2, §3, §4, §5

renin = target: T5, renin (Homo sapiens, UniProt P00797); assay: Renin FRET protease assay; assay type: biochemical; conditions: mean and SD of 4 replicate FRET experiments, 37 °C; highest concentration tested 11 μM
T5 construct: purchased Proteos R-001
T5 sequence (P00797 67-406): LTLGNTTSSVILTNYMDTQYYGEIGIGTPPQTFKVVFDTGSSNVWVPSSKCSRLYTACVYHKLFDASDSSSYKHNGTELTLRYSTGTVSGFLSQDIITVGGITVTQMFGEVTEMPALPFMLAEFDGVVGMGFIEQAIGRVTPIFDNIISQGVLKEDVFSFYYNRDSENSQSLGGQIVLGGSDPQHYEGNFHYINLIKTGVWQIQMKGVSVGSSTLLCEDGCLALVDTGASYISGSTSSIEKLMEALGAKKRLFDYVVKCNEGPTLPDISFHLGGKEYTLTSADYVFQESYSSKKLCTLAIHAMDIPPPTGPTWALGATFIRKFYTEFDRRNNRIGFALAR

[2] = Table 3, mean and SD of 4 replicate FRET experiments
[3] = recombinant PMX, fluorogenic substrate (Rh2N) cleavage, 4 h, mean and SD of 4 replicates (Tables 1, 2)

T2 sequence (Q8IAS0 222-573): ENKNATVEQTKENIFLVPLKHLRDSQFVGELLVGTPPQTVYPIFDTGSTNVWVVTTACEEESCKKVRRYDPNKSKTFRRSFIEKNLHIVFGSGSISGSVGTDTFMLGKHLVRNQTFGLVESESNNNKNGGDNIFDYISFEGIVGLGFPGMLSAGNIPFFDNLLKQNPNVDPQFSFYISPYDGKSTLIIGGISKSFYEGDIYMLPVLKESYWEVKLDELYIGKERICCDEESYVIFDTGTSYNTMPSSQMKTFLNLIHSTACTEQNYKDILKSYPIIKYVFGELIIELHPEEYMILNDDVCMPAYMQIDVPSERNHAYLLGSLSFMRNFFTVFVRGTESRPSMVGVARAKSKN
T1 sequence (Q8ILG2 whole entry): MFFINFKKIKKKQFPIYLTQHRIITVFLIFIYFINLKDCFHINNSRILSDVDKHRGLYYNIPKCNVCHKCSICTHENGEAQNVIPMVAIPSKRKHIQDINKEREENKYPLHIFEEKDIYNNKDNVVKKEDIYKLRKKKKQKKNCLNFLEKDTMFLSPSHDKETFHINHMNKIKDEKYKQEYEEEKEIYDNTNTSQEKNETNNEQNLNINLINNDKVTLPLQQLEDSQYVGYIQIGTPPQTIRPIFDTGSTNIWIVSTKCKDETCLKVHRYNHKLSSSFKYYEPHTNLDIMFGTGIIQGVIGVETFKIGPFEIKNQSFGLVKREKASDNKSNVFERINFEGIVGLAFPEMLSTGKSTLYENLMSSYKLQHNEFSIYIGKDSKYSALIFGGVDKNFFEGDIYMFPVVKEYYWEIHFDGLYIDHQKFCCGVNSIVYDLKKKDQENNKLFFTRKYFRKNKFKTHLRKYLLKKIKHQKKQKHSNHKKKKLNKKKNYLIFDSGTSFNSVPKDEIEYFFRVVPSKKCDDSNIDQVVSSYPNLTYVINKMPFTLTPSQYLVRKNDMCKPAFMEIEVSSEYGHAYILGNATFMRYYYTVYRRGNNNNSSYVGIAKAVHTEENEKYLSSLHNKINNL
T3 sequence (P56817 46-460 limits assumed): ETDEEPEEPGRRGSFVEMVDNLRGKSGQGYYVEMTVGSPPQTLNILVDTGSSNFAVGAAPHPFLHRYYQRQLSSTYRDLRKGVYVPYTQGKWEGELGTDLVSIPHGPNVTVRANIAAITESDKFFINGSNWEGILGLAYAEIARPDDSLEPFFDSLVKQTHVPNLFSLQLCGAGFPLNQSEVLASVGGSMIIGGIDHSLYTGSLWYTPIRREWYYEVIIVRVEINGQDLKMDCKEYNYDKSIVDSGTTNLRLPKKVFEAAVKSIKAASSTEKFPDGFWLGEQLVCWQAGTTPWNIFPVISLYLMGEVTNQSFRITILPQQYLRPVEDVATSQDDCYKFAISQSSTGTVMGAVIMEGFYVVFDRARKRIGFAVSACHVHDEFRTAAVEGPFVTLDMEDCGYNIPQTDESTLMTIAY
T4 sequence (A5K302 35-536): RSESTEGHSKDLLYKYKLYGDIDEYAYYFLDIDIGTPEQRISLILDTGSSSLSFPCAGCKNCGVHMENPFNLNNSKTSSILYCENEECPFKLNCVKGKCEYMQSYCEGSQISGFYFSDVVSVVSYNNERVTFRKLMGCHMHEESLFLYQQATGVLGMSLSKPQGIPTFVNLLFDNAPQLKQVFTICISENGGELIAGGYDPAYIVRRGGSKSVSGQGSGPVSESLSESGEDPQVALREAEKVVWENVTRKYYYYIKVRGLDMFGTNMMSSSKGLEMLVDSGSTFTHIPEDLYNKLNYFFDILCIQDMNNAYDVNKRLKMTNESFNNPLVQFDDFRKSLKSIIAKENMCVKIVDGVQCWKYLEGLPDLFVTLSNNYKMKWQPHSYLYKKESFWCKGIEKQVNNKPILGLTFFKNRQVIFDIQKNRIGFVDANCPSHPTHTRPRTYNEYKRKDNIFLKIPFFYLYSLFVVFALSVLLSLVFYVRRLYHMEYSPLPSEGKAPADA

For `C[C@@H](NC[C@@H](O)[C@H](Cc1ccccc1)NC(=O)[C@H](CO)NC(=O)OCc1ccccc1)c1ccccc1` [Compd 38, Cbz‐Ser‐Phe‐HEA‐Bn(CH3)⋅TFA], the “fold decrease in parasite activity compared to PMX inhibition” value ([1]; Pf 3D7 EC50 versus PMX IC50) was 2 fold, the EC50 [1] was 90 nM and the IC50 (recombinant Pf PMIX) was 41000 nM. The IC50 (recombinant Pf PMX; [2]) was 60 nM, the IC50 (recombinant Pf PMX; [3]) was 60 nM and the IC50 (BACE‐1) was > 11000 nM. The IC50 (recombinant Pv PMV) was > 90000 nM and the IC50 (renin) was > 11000 nM.
Work on `C[C@@H](NC[C@@H](O)[C@H](Cc1ccccc1)NC(=O)c1ccc(C(=O)N2CCN(C)CC2)cc1)c1ccccc1` [Compd 2, reference compound] yielded an EC50 [1] of 1 nM, an IC50 (recombinant Pf PMIX) of 15100 nM and an IC50 (recombinant Pf PMX; [2]) of 1 nM. The IC50 (recombinant Pf PMX; [3]) was 1 nM, the IC50 (BACE‐1) was > 11000 nM and the IC50 (recombinant Pv PMV) was > 90000 nM. For the same compound, the IC50 (renin) was > 11000 nM.
